Test results taken from patent US9750728B2, “Method and pharmaceutical composition for inhibiting PI3K/AKT/mTOR signaling pathway” (TARGETED THERAPEUTICS, LLC, priority 2012, dated 2017).
“Also recorded” adds a separate entry of the source.

How the values were obtained:
Format in all cases: cell-based
Panc-1 = assay: Colony formation assay (clonogenic assay); settings: Panc-1, rapamycin alone 1 nM and 10 nM
Experimental: 1.2. Colony formation assay (clonogenic assay) was used to analyze the effect of ZPP or Y29794 on cancer cell survival. 10^3 Panc-1 cells were plated in 100 mm petri dish in triplicate fed with 10 ml of DMEM containing 10% FBS. The cells were then treated by ZPP for 7 days and cultured for additional three weeks. Cells were then rinsed three times with PBS, fixed with 100% ethanol for 15 min, and stained with 2% crystal violet ethanol solution. The stained colonies were counted. All the results are statistically analyzed by one way ANOVA and two tailed t-test.

[1] = tested on: AKT phosphorylation (S473); assay: Immunoblot analysis of AKT phosphorylation in cancer cells; settings: 24 hours
Experimental: (§1) 2.2 Immunoblot analysis of gene silencing of PRCP or PREP in cancer cells. Mouse anti-PRCP antibody was purchased from Abcam (Cambridge, Mass., USA). Goat anti-PREP antibody was purchased from R&D Systems (Minneapolis, Minn., USA). Mouse anti-R-actin antibody antibodies was from Santa Cruz Biotechnology (Santa Cruz, Calif., USA). Panc-1 pancreatic cancer cells and MCF7 breast cancer cells were cultured to 80% confluence, cells were rinsed three times with pre-cooled PBS, 500 μl of lysis buffer (150 mmol/L Nacl, 1% Triton-x-100, 50 mmol/l TrispH8.0, 1 mmol/L PMSF, 1 ug/L aprotinin, 1 ug/L leupeptin, 1 ug/L peptain) was added to the cells. Cells were scraped and transferred to a centrifuge tube with a pipette. The lysates were spun in a microcentrifuge at maximal speed for 10 minutes at 4° C. to get rid of the insoluble fraction. Protein concentration was determined by Bradford assay. For immunoprecipitation: 2-5 ug protein-specific antibodies were added to 250-500 ug of lysates in a tube and incubated on an ordital shaker 4° C. for 2-4 hours with moderate shaking, then 20 ul Protein G beads (Santa Cruz Biotechnology (Santa Cruz, Calif., USA.) were added and the mixture was incubated with moderate shaking for another hour. After washing the beads in lysis buffer five times, the immunoprecipitates were boiled in 2× Laemmli sample buffer (50 mmoL/L Tris-HCL (pH8.0), 100 mmoL/L DTT, 2% SDS, 0.1% bromophenol blue, 10% glycerol) for five minutes. The proteins were separated by conventional SDS-polyacrylamide gel electrophoresis (SDS-PAGE) electrophoresis and transferred to Amersham Hybond-P PVDF membrane (GE Company, Pittsburgh, Pa., USA). For immunoblot, the membrane was blocked in 2% BSA in TBST buffer (Tris 1.21 g+NaCl 5.84 g+800 ml H2O adjusted to pH 8.0 with HCl) for one hour and then incubated with primary antibodies in TBST at room temperature (22-25° C.) for 2 hours. After washing three times with TBST, the membrane was incubated with HRP-conjugated secondary antibodies for 0.5 hours at room temperature. After washing the membrane five times with TBST (5 minutes/each), the membrane was incubated with ECL chromogenic reagent (GE Company, Pittsburgh, Pa., USA) for 1-5 minutes. The blots were exposed to films in darkroom for 1-5 minute. The films were developed in an automatic X-OMAT Developer (KODAK, Rochester, N.Y., USA). […] PREP gene silencing (PREP KD) or PRCP gene silencing (PRCP KD) or gene silencing both PRCP and PREP (DKD) in MCF7 cells reduces expression of PREP and/or PRCP proteins compared with control cells (control) (FIGS. 6B & 6C).
3.1 Reduction in AKT phosphorylation is examined by immunoblot using rabbit anti-phospho-AKT […] and rabbit anti-pan AKT antibodies purchased from Cell Signaling Technology (Danvers, Mass., USA) in the cells with gene silencing of PRCP and/or PREP or treated with ZPP or Y29794. Reduction in PRCP and/or PREP is shown by Western blot and quantitative PCR described in 2.2.

IRS-1 = assay: Immunoblot analysis of IRS-1 (protein, phosphorylation, half-life, p85 coimmunoprecipitation)
Experimental: as §1
3.2 AKT phosphorylation was examined by immunoblot as described in 3.1. IRS-1 expression was analyzed by immunoblot using anti-IRS-1 antibodies purchased from Santa Cruz Biotechnology (Santa Cruz, Calif., USA). Reduction in PRCP and/or PREP by gene silencing is shown by Western blot and quantitative PCR described in 2.2.
3.4 ZPP or Y29794 inhibits IRS-1 tyrosine phosphorylation and p85 PI3K subunit interaction with IRS-1 and PI3K kinase activity. Panc-1 cells were treated with ZPP (200 μM) or Y29794 (0.5 μM) for 24 hours. Lysates were immunoprecipitated with anti-IRS-1 antibodies and the anti-IRS-1 immunoprecipitates were used for PI3K kinase assay and anti-IRS-1 phospho-tyrosine and anti-p85 immunoblot analysis (FIG. 13). ZPP or Y29794 decreased IRS-1-associated PI3K activity (FIG. 13, upper) and tyrosine phosphorylation of IRS-1 and p85 (FIG. 13, lower).
As described in Example 2.2 and above, the cells with PRCP and PREP gene silencing were used for analysis of PRCP and PREP gene silencing and inhibition of serine phosphorylation and degradation of IRS-1 and its effects on response to rapamycin. […] Compared to control cells, DKD cells show […] serine phosphorylation (S307 and S636/639) of IRS-1 alongside with decreased tyrosine phosphorylation of IRS-1 (FIG. 18B). […]

PI3K [2] = assay: PI3K kinase assay in anti-p85 immunoprecipitates; settings: Panc-1, 24 hours; ZPP 200 μM, Y29794 0.5 μM or rapamycin alone, vs vehicle
Experimental: (§2) PI3K kinase assay kit (Calbiochem, Bilerica, Mass., USA) was used to measure the IRS-1-associated or p85-associated PI3K kinase activity in cells. The indicated cells were treated with different conditions for 24 hours. The cells were rinsed three times with pre-cooled PBS, lysed in 500 μl of lysis buffer (150 mmol/L Nacl, 1% Triton-x-100, 50 mmol/1 Tris (pH8.0, 1 mmol/L PMSF, 1 μg/L aprotinin, 1 μg/Lleupeptin, 1 μg/L peptain). Cell lysates (500 μg, in triplicate) of were used for anti-IRS-1 or anti-p85 immunoprecipitation. The immunoprecipitates were resuspended in 200 μl assay buffer and mixed with the fluorescence-labeled PI3K substrate BODIPY-TMR-phosphatidylinositol (100 μM) and ATP (37° C.) for 1 hour. The fluorescence intensity was measured with a fluorometer (excitation wavelength of 540 nm, emission wavelength […]). The difference between fluorescence intensity between control immunoprecipitates (no lysates) and lysate immunoprecipitates was used to indicate PI3K kinase activity. IR-1 anti-rabbit antibody and rabbit anti-PI3K p85 antibody were purchased from Millipore Corporation (Billerica, Mass., USA). Panc-1 anti-p85 immunoprecipitates were used for PI3K kinase assay (FIG. 12) and immunoblot analysis (FIG. 12). Rapamycin treatment in control cells increased PI3K kinase activity (P<0.01).

PI3K [3] = assay: PI3K kinase assay in anti-IRS-1 immunoprecipitates; settings: Panc-1, 24 hours; ZPP 200 μM, Y29794 0.5 μM or rapamycin alone
Experimental: as §2, with “(P<0.01). […]” for “(P<0.01).”

[4] = tested on: mTOR (S2448) phosphorylation; assay: Immunoblot analysis of mTOR phosphorylation; settings: Panc-1; rapamycin, or Y29794 1 μM (FIG. 19D)
Experimental: Mouse anti-PRCP antibody was purchased from Abcam (Cambridge, Mass., USA). Goat anti-PREP antibody was purchased from R&D Systems (Minneapolis, Minn., USA). Mouse anti-R-actin antibody antibodies was from Santa Cruz Biotechnology (Santa Cruz, Calif., USA). Panc-1 pancreatic cancer cells and MCF7 breast cancer cells were cultured to 80% confluence, cells were rinsed three times with pre-cooled PBS, 500 μl of lysis buffer (150 mmol/L Nacl, 1% Triton-x-100, 50 mmol/l TrispH8.0, 1 mmol/L PMSF, 1 ug/L aprotinin, 1 ug/L leupeptin, 1 ug/L peptain) was added to the cells. Cells were scraped and transferred to a centrifuge tube with a pipette. The lysates were spun in a microcentrifuge at maximal speed for 10 minutes at 4° C. to get rid of the insoluble fraction. Protein concentration was determined by Bradford assay. For immunoprecipitation: 2-5 ug protein-specific antibodies were added to 250-500 ug of lysates in a tube and incubated on an ordital shaker 4° C. for 2-4 hours with moderate shaking, then 20 ul Protein G beads (Santa Cruz Biotechnology (Santa Cruz, Calif., USA.) were added and the mixture was incubated with moderate shaking for another hour. After washing the beads in lysis buffer five times, the immunoprecipitates were boiled in 2× Laemmli sample buffer (50 mmoL/L Tris-HCL (pH8.0), 100 mmoL/L DTT, 2% SDS, 0.1% bromophenol blue, 10% glycerol) for five minutes. The proteins were separated by conventional SDS-polyacrylamide gel electrophoresis (SDS-PAGE) electrophoresis and transferred to Amersham Hybond-P PVDF membrane (GE Company, Pittsburgh, Pa., USA). For immunoblot, the membrane was blocked in 2% BSA in TBST buffer (Tris 1.21 g+NaCl 5.84 g+800 ml H2O adjusted to pH 8.0 with HCl) for one hour and then incubated with primary antibodies in TBST at room temperature (22-25° C.) for 2 hours. After washing three times with TBST, the membrane was incubated with HRP-conjugated secondary antibodies for 0.5 hours at room temperature. […]

[5] = tested on: S6K (T389) phosphorylation; assay: Immunoblot analysis of S6K phosphorylation; settings: Panc-1 cells incl. PRCP and PREP silenced cells, rapamycin (FIG. 18D)
Experimental: 2.2 Immunoblot analysis of gene silencing of PRCP or PREP in cancer cells. Mouse anti-PRCP antibody was purchased from Abcam (Cambridge, Mass., USA). Goat anti-PREP antibody was purchased from R&D Systems (Minneapolis, Minn., USA). Mouse anti-R-actin antibody antibodies was from Santa Cruz Biotechnology (Santa Cruz, Calif., USA). Panc-1 pancreatic cancer cells and MCF7 breast cancer cells were cultured to 80% confluence, cells were rinsed three times with pre-cooled PBS, 500 μl of lysis buffer (150 mmol/L Nacl, 1% Triton-x-100, 50 mmol/l TrispH8.0, 1 mmol/L PMSF, 1 ug/L aprotinin, 1 ug/L leupeptin, 1 ug/L peptain) was added to the cells. Cells were scraped and transferred to a centrifuge tube with a pipette. The lysates were spun in a microcentrifuge at maximal speed for 10 minutes at 4° C. to get rid of the insoluble fraction. Protein concentration was determined by Bradford assay. […]

CO[C@H]1C[C@@H]2CC[C@@H](C)[C@@](O)(O2)C(=O)C(=O)N2CCCC[C@H]2C(=O)O[C@H]([C@H](C)C[C@@H]2CC[C@@H](O)[C@H](OC)C2)CC(=O)[C@H](C)/C=C(\C)[C@@H](O)[C@@H](OC)C(=O)[C@H](C)C[C@H](C)/C=C/C=C/C=C/1C [rapamycin, (3S,6R,7E,9R,10R,12R,14S,15E,17E,19E,21S,23S,26R,27R,34aS)-9,10,12,13,14,21,22,23,24,25,26,27,32,33,34,34a-hexadecahydro-9,27-dihydroxy-3-[(1R)-2-[(1S,3R,4R)-4-hydroxy-3-methoxycyclohexyl]-1-methylethyl]-10,21-dimethoxy-6,8,12,14,20,26-hexamethyl-23,27-epoxy-3H-pyrido[2,1-c][1,4]oxaazacyclohentriacontine-1,5,11,28,29 (4H,6H,31H)-pentone]
cell survival (colony formation) (Panc-1): did not affect
AKT phosphorylation ([1]; MCF7, rapamycin 10 nM): increased; also recorded: induced an increase
AKT phosphorylation ([1]; Panc-1, rapamycin 10 nM): significantly increased; also recorded: induced an increase
IRS-1 protein (IRS-1; MCF7, rapamycin 10 nM, 24 hours): increased; also recorded: induced an increase
tyrosine phosphorylation of IRS-1 (IRS-1; Panc-1, rapamycin 10 nM (FIG. 10A legend)): increased
IRS-1 protein (IRS-1; Panc-1, rapamycin 10 nM, 24 hours): significantly increased; also recorded: induced an increase
serine phosphorylation (S307 and S636/639) of IRS-1 (IRS-1; control Panc-1 cells, rapamycin (FIG. 18D)): inhibits; also recorded: inhibiting
IRS-1 protein (IRS-1; control Panc-1 cells, rapamycin, concentration not given): increases; also recorded: induced increase
PI3K kinase activity (p85-associated) (PI3K [2]): increases; also recorded: significantly elevated
IRS-1-associated PI3K activity (PI3K [3]): increases; also recorded: significantly elevated
mTOR (S2448) phosphorylation [4]: inhibits; also recorded: completely inhibited
phosphorylation of S6K (T389) [5]: completely inhibited
